# Tests used:
# [1] = Liver microsomal stability, human; type: in vitro ADME; conditions: 37° C., 4 μM compound, 30 minutes
# Procedure: (§1) In vitro metabolism studies were done in mouse, rat, human, and dogs cells (TABLE 2).
# (§2) In vitro liver microsomal studies were completed to measure the stability of the compounds against degradation in various species' liver microsomes.
# (§3) Compound was incubated in hepatic microsomes over a 30-minute incubation period at 37° C. Incubations both with and without NADPH (2 mM) were performed in a 96-well plate format. The reaction was initiated with the addition of substrate and was terminated by protein precipitation. All incubations were performed using a final substrate concentration of 4 μM in 50 mM sodium phosphate buffer, pH 7.4. The final organic solvent content was 0.5% acetonitrile and 0.02% DMSO. The amount of enzyme present was fixed at 1.11 mg/mL protein irrespective of the species of microsomes used. Samples were analyzed by LC/MS-MS to determine the percent loss in the NAPDH incubations relative to the NADPH free incubations.
# [2] = molecular target: T1, α3, β3, γ2 GABA A receptor (Homo sapiens, UniProt P18507+P34903); assay: FLIPR functional assay, α3 GABAA receptor subtype in HEK-293 cells; type: cell-based; conditions: α3 Binding EC50, FLIPR membrane potential, potentiation of GABA EC20
# T1 construct: host or cells: HEK-293, stably transfected
# T1 sequence (P34903 29-492): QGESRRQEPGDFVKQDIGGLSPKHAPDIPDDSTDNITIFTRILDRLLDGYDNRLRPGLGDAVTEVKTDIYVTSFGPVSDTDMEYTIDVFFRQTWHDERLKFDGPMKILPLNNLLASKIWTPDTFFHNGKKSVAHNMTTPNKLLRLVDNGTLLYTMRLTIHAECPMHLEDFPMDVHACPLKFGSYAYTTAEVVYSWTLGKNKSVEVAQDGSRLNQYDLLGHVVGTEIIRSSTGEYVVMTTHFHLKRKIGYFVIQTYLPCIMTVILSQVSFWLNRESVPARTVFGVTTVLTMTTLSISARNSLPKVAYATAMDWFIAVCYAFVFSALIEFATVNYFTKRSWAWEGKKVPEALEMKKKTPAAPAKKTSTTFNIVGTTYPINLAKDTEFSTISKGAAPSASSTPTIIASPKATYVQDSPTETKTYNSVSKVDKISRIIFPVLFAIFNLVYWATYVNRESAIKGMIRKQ
# T1 sequence (P28472 26-473 partner): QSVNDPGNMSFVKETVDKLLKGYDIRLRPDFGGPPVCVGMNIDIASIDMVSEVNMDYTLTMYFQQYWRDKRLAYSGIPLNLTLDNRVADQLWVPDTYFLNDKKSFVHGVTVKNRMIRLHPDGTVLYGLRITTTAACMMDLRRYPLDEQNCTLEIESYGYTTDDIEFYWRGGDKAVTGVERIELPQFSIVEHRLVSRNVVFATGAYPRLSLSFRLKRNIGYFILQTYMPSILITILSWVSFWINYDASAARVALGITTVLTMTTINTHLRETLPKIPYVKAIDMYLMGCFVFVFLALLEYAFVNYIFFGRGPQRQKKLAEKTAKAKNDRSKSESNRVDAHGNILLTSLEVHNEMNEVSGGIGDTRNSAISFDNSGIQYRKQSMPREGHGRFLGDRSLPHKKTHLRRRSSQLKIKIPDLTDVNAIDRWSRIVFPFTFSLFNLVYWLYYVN
# T1 sequence (P18507 40-475): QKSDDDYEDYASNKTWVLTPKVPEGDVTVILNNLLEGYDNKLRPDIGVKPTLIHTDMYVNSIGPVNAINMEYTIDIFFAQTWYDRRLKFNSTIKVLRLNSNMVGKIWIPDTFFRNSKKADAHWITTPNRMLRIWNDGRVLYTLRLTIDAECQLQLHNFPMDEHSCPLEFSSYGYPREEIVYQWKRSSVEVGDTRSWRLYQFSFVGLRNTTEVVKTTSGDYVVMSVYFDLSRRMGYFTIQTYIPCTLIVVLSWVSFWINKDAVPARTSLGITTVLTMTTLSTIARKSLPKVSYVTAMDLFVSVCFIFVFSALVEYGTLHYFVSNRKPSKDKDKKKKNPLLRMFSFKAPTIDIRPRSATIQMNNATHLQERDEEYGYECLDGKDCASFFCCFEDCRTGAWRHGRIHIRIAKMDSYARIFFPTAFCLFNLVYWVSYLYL
# Description: (§4) The FLIPR functional assay is used to determine the EC50 at the α1 and α3 GABAA receptor subtypes. A high EC50 for the α1 subtype would indicate a low chance of adverse effects, including sedation, ataxia, and muscle relaxation. A low α3 EC50 would indicate potential effectiveness as an anxiolytic, antihyperalgesic, and likely an anticonvulsant. See, for example, Liu et al. (Assay. Drug. Dev. Technol. 2008, 6, 781-6) and Joesch et al. (J. Biomol. Screen. 2008, 13, 218-28).
# (§5) Compounds tested were synthesized internally and solubilized in DMSO at a 10 mM concentration. GABA was purchase from Sigma (#A2129) and prepared at 100 mM in water.
# (§6) HEK-293 cells were stably transfected with the α1, β3, γ2 GABA A receptor subunits (GenBank accession numbers NM_000806.3, NM_000814.5, and NM_198904.1, respectively) or α3, β3, γ2 (NM_000808 for α3) where obtained from ChanTest Co. (Catalog # CT6216 and CT6218, respectively).
# (§7) Cells were cultivated in Dulbeco's Modified Eagle's Medium (DMEM, Sigma D5796) supplemented with 10% Fetal Bovine Serum (FBS, Gibco 16000), 0.5 mg/mL Geneticin (Gibco), 0.04 mg/mL Hygromycin B (Gibco), 0.1 mg/mL Zeocin (Gibco) and 20 mM HEPES (Sigma). Cells were grown at 37° C. in a humidified atmosphere of 5% CO2. In the experiments described here frozen cells were used. For this purpose, cells were gown and maintained under confluency during 2-3 weeks and then frozen down at different cell densities using Recovery™ Cell Culture Freezing Medium (Gibco).
# (§8) 18 hours prior to the experiment, cells were quickly thawed at 37° C. and seeded on Poly-D-Lys 384 plates (Corning 356663) at a density of 25,000 cells/well and in 25 μL of complete cell medium as described above.
# (§9) Membrane potential changes induced by the flux of ions through the receptor were measured as relative fluorescence units (RFU) using the Fluorometric Imaging Plate Reader (FLIPR Tetra®, Molecular Devices) and the FLIPR Membrane Potential Blue Assay kit (Molecular Devices). Prior to the addition of the compounds the medium was removed and cells were loaded with 20 μL of dye prepared in assay buffer composed of Hank's Balanced Salt Solution (HBSS with Ca^+2 and Mg^+2; Gibco 14025) with 20 mM Hepes. After 1 hour of incubation at room temperature (RT), the plate was placed into the FLIPR instrument and experiments were run adding first 10 μL from the 1st addition plate (compound plate) and after a 3 minutes incubation adding 20 μL of the 2nd addition or agonist plate. The response to this last GABA addition was monitored for another 3 minutes. […]
# (§10) Data Analysis. The difference between the maximum and the minimum (Max-Min) fluorescence reached during the first addition or read interval and the second read interval were used for data analysis (agonist and potentiation, respectively). […]
# [3] = Liver microsomal stability, mouse; type: in vitro ADME; conditions: 37° C., 4 μM compound, 30 minutes
# Procedure: as §1, §2, §3
# [4] = Liver microsomal stability, dog; type: in vitro ADME; conditions: 37° C., 4 μM compound, 30 minutes
# Procedure: as §1, §2, §3
# [5] = Liver microsomal stability, rat; type: in vitro ADME; conditions: 37° C., 4 μM compound, 30 minutes
# Procedure: as §1, §2, §3
# [6] = molecular target: T2, α1, β3, γ2 GABA A receptor (Homo sapiens, UniProt P14867+P18507); assay: FLIPR functional assay, α1 GABAA receptor subtype in HEK-293 cells; type: cell-based
# T2 construct: host or cells: HEK-293, stably transfected
# T2 sequence (P14867 28-456): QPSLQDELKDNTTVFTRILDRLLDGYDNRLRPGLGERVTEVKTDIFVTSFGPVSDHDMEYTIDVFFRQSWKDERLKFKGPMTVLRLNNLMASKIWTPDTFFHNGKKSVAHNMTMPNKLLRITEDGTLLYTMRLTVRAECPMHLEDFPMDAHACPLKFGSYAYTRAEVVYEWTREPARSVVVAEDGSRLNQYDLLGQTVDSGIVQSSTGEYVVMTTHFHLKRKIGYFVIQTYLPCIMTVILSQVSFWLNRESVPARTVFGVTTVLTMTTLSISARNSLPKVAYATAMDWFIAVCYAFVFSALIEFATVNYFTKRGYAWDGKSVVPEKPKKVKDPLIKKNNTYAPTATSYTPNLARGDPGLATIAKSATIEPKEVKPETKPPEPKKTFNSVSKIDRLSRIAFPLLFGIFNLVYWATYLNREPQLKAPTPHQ
# T2 sequence (P28472 26-473 partner): as the sequence (P28472 26-473 partner) above
# T2 sequence (P18507 40-475): as the sequence (P18507 40-475) above
# Description: as §4, §5, §6, §7, §8, §9, §10
# Male NIH Swiss mice = assay: Rotorod assay (ataxia); type: in vivo; conditions: 30 mg/kg i.p., 30 minutes prior, 4 r.p.m., two minutes
# Procedure: Male NIH Swiss mice (n=10) were dosed i.p. with vehicle (1% carboxymethyl cellulose) or one of the test compounds (10 or 30 mg/kg) 30 minutes prior to being tested on the rotorod. Mice were placed on a rod for two minutes at 4 revolutions per minute. […] Mice that fell twice failed the testing.
# The rotorod assay (FIG. 5) is used to determine the ataxic effects, generally stemming from the α1 subtype, that compounds have in test subjects. Mice are trained to run on a slow, rotating cylinder for two minutes, and failure to stay on the rod may be due to ataxia. […] Each set of compounds were tested against a vehicle.
# Male NIH Swiss mice (n=10/group) were trained on a rotorod (Ugo Basile 7650) at 4 r.p.m. for two minutes per training session prior to testing. On test day, mice were dosed i.p. with either vehicle (1% carboxymethyl cellulose) or one of the test compounds (10 or 30 mg/kg) 30 minutes prior to testing.
# Sprague Dawley male rats = assay: Mechanical hyperalgesia (von Frey) in CFA-induced inflammatory pain rat model; type: in vivo
# Procedure: Raw data (paw withdrawal threshold, expressed in g of von Frey filament) was converted to a maximal possible effect value according the following equation: % MPE=[(test threshold(g)−control threshold(g)/(pre-CFA threshold−control threshold)]×100.
# Complete Freund's adjuvant (CFA) contains Mycobacterium butyricum, inducing inflammation and an increase in paw thickness. 0.1 mL of CFA was injected in the right hind paw of Sprague Dawley male rats under isoflurane anaesthesia.
# Mechanical hyperalgesia. Mechanical hyperalgesia was measured 3 days after CFA treatment. Rats (n=6) were placed in elevated boxes with a mesh floor. Von Frey filaments (expressed in g) were applied perpendicularly to the hindpaws, starting with the lowest filament (1.4 g) then increased until hindpaw withdrawal was observed. After each measurement, rats received the next dose of drug (every 20 min) until the maximum threshold (26 g) was observed. For the antagonist study, rats were pretreated with the benzodiazepine site antagonist flumazenil (10 min) and then received the next dose of drug (every 20 min) until the pre-CFA threshold was observed.
# Drugs. The following drugs were used: HZ166, KRM-II-18B, and KRM-II-81, and were dissolved in a mixture containing 20% Dimethyl sulfoxide (DMSO), 10% Emulphor-620 (Rhodia Inc.), and 70% of 0.9% saline. Flumazenil (purchased from Cayman Chemical Company, MI) was dissolved in a mixture containing 10% ethanol, 40% propylene glycol, and 50% sterile water. Midazolam (Akorn, Inc.) was dissolved in 0.9% saline. Doses were expressed as the weight of the drug in milligrams per kilogram of body weight and drugs were administered intraperitoneally.
# Male Sprague-Dawley rats = assay: von Frey filament test in spinal nerve ligated (SNL) rats; type: in vivo
# Procedure: FIG. 11 is a graph of time versus withdrawal threshold for KRM-II-81, Gabapentin, and vehicle, showing the effect of KRM-II-81 on antihyperalgesia in the von Frey filament assay. Male Sprague-Dawley rats (n=5) were dosed i.p. either vehicle, KRM-II-81 (30 mg/kg), or gabapentin (50 mg/kg) and tested in the von Frey filament assay after undergoing SNL 90 days prior. Results were analyzed using ANOVA (Dunnett's test: *P<0.05).
# The von Frey filament test is used to test for antihyperalgesia, or an increased sensitivity to pain. […] The von Frey filaments are used to apply pressure to the forelimbs of test subjects at set amounts. When pressure becomes too great, the forelimb is withdrawn and the amount of force applied recorded. The spinal nerve ligation induced hyperalgesia, reducing the amount of force a limb can take before being withdrawn.
# Test compounds were given to test the effectiveness of combating the hyperalgesic effect of SNL. Male Sprague-Dawley rats went through SNL at least 90 days prior to the von Frey testing. Rats were first tested without given an injection to determine a baseline. Following baseline establishment, rats (n=5 for all groups) were dosed i.p. with vehicle (1% carboxymethyl cellulose), KRM-II-81 (30 mg/kg), or gabapentin (50 mg/kg). Subjects were then tested every hour for four hours to determine the antihyperalgesic effect of the test compounds. For testing, pressure using von Frey filaments was applied to the forelimb of the rat. Pressure was increased until the limb was withdrawn, and the amount of pressure was recorded.
smiles,measurement,setting,value
Brc1ccc2c(c1)C(c1ccccc1)=NCc1c(-c3cnco3)ncn1-2,melting point,,225 to 227 °C
Cc1ncoc1-c1ncn2c1CN=C(c1ccccn1)c1cc(Br)ccc1-2,melting point,,228 to 230 °C
Cc1ncoc1-c1ncn2c1CN=C(c1ccccc1)c1cc(Br)ccc1-2,melting point,,236 to 238 °C
Cc1ncoc1-c1ncn2c1CN=C(c1ccccc1F)c1cc(Br)ccc1-2,melting point,,138 to 140 °C
C[Si](C)(C)C#Cc1ccc2c(c1)C(c1ccccn1)=NCc1c(-c3cnco3)ncn1-2,melting point,,208 to 210 °C
Cc1ncoc1-c1ncn2c1CN=C(c1ccccc1)c1cc(C#C[Si](C)(C)C)ccc1-2,melting point,,130 to 132 °C
Cc1ncoc1-c1ncn2c1CN=C(c1ccccc1F)c1cc(C#C[Si](C)(C)C)ccc1-2,melting point,,209 to 211 °C
C#Cc1ccc2c(c1)C(c1ccccn1)=NCc1c(-c3ocnc3C)ncn1-2,melting point,,209 to 211 °C
C#Cc1ccc2c(c1)C(c1ccccc1)=NCc1c(-c3ocnc3C)ncn1-2,melting point,,228 to 230 °C
C#Cc1ccc2c(c1)C(c1ccccc1F)=NCc1c(-c3ocnc3C)ncn1-2,melting point,,145 to 147 °C
"C#Cc1ccc2c(c1)C(c1ccccc1)=NCc1c(-c3cnco3)ncn1-2 [KRM-II-82, 5-(8-Ethynyl-6-phenyl-4H-benzo[f]imidazo[1,5-a][1,4]diazepin-3-yl)oxazole]",Human Liver microsome stability (reported in % remaining),[1],74 % remaining
same,EC50,[2],32.1 nM
same,Mouse Liver microsome stability (reported in % remaining),[3],73 % remaining
same,Dog Liver microsome stability (reported in % remaining),[4],86 % remaining
same,Rat Liver microsome stability (reported in % remaining),[5],72 % remaining
same,EC50,[6],> 20000 nM
same,rotorod performance at 30 mg/kg,Male NIH Swiss mice,failed multiple times
"Fc1ccccc1C1=NCc2c(-c3cnco3)ncn2-c2ccc(Br)cc21 [SH-I-085, 5-(8-Bromo-6-(2-fluorophenyl)-4H-benzo[f]imidazo[1,5-a][1,4]diazepin-3-yl)oxazole]",melting point,,190 to 192 °C
same,Human Liver microsome stability (reported in % remaining),[1],62 % remaining
same,EC50,[2],24.9 nM
same,Mouse Liver microsome stability (reported in % remaining),[3],67 % remaining
same,Dog Liver microsome stability (reported in % remaining),[4],77 % remaining
same,Rat Liver microsome stability (reported in % remaining),[5],61 % remaining
same,EC50,[6],> 20000 nM
"CCOC(=O)c1ncn2c1CN(C)C(=O)c1cc(F)ccc1-2 [flumazenil, reference compound]",shift of PAM dose-effect curves by antagonist pretreatment,Sprague Dawley male rats; flumazenil pretreatment 10 min,shifted the dose-effect curves of PAMs rightward
"NCC1(CC(=O)O)CCCCC1 [gabapentin, reference compound]","antihyperalgesic activity, von Frey after SNL","Male Sprague-Dawley rats; KRM-II-81 30 mg/kg, gabapentin 50 mg/kg i.p.",active as antihyperalgesics
same,pain threshold (force before removing paw),"Male Sprague-Dawley rats; from 1-2 hours, vehicle ˜5 g",~12 g
"Cc1ncc2n1-c1ccc(Cl)cc1C(c1ccccc1F)=NC2 [midazolam, reference compound]",mechanical hyperalgesia in CFA-induced inflammatory pain,"Sprague Dawley male rats; cumulative i.p. dosing, 3 days after CFA",dose-dependently attenuated mechanical hyperalgesia

# Reference: patent US10259815B2, “Gabaergic ligands and their uses” (UWM Research Foundation, Inc., priority 2015, dated 2019)
